Data published in ChEMBL document CHEMBL5126545, “Development of inhibitors targeting glycogen synthase kinase-3β for human diseases: Strategies to improve selectivity” (Eur J Med Chem, 2022).
Each block holds one compound with its values, some of them ahead of it. *1 amine or outer side, *2 acyl side, *3 side chain or, on linkers, in order; H or OH if unused. Where a SMILES comes first, the peptide text is derived from it. [ ]: non-standard residue; d: D form. The star is where a group is joined. X1 = C[C@H](N[*:1])C(=O)C1CCC[C@H]1C(=O)[*:2]; Myristoyl = CCCCCCCCCCCCCC(=O)*

What was measured:
[1] = target: T1, Glycogen synthase kinase-3 beta (Homo sapiens, UniProt P49841); test: Inhibition of GSK-3beta (unknown origin)
[2] = Inhibition of GSK-3beta (unknown origin) using GS-1 as substrate incubated for 20 mins
[3] = Inhibition of CDK-1/cyclin B (unknown origin) using histone H1 as substrate incubated for 20 mins by liquid scintillation counter analysis; parameters: species or system Homo sapiens
[4] = Inhibition of bovine brain CK2 using stathmin as substrate; parameters: species or system Bos taurus
[5] = Inhibition of bovine heart PKA using stathmin as substrate incubated for 20 mins by liquid scintillation counter analysis; parameters: species or system Bos taurus
Protein kinase C (PKC) = test: Inhibition of rat brain PKC using peptide PANKTPPKSPGEPAK as substrate incubated for 20 mins in presence of phosphatidyl serine
[6] = target: T1, Glycogen synthase kinase-3 beta; test: Inhibition of GSK3-beta (unknown origin) by Kinase-Glo Max assay kit
[7] = target: T1, Glycogen synthase kinase-3 beta; test: Inhibition of GSK-3beta (unknown origin) using biotin-labelled IRS-1 peptide as substrate incubated for 15 mins by ELISA based assay
[8] = target: T1, Glycogen synthase kinase-3 beta; test: Inhibition of GSK-3beta (unknown origin) using peptide YRRAAVPPSPSLSRHSSPHQ(pS)EDEEE as substrate incubated for 5 to 60 mins by ADP-Glo kinase assay
SH-SY5Y = test: Neuroprotective activity against human SH-SY5Y cells pretreated for 1 hr followed by muMAbeta42 measured after 72 hrs; format: functional, cell-based
[9] = Inhibition of recombinant rabbit GSK-3beta using peptide YRRAAVPPSPSLSRHSSPHQ(pS)EDEEE as substrate incubated for 10 mins; parameters: species or system Oryctolagus cuniculus
[10] = target: T1, Glycogen synthase kinase-3 beta; test: Inhibition of human recombinant GSK3-beta

T1 sequence (P49841 whole entry): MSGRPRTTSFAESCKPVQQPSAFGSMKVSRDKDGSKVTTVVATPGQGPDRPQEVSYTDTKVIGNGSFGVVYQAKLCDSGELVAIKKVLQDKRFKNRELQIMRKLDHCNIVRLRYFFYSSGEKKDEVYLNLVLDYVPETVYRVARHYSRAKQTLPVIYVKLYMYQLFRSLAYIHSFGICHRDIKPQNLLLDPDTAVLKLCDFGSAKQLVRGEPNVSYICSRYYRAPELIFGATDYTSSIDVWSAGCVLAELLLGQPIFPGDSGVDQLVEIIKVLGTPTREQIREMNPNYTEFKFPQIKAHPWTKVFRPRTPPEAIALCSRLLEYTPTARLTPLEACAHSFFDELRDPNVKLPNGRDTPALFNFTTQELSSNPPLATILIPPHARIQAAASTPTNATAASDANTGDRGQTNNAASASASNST

IC50 [2]: 25 µM
Compound: CCn1sc(=O)n(CC)c1=O

IC50 [2]: 20 µM
Compound: CCn1sc(=O)n(CC)c1=S

IC50 [2]: 3 µM
Compound: Cn1sc(=O)n(-c2cccc3ccccc23)c1=O

IC50 [4]: > 100 µM
IC50 (Protein kinase C (PKC)): > 100 µM
Compound: Cn1sc(=O)n(Cc2ccccc2)c1=O
IC50 [3]: > 100 µM
IC50 [5]: > 100 µM

IC50 [7]: 8 µM
Compound: O=C(O)CCNc1cc(N2CCN(c3ccc(F)cc3)CC2)c2noc3c2c1C(=O)c1ccccc1-3

IC50 [1]: 0.0004 µM
Compound: Cn1cc(C2=C(c3coc4ccccc34)C(=O)NC2=O)c2cc(F)ccc21

IC50 [7]: 1 µM
Compound: O=C1c2ccccc2-c2onc3c(N4CCN(c5ccc(O)cc5)CC4)cc(NCCP(=O)(O)O)c1c23

IC50 [1]: 2 µM
Compound: CN(c1ncnc2[nH]c3cc(Cl)ccc3c12)C1CCCN(C(=O)CC#N)C1 (centres undefined)

IC50 [7]: 1 µM
Compound: O=C(O)c1ccc(N2CCN(c3cc(NCCP(=O)(O)O)c4c5c(onc35)-c3ccccc3C4=O)CC2)cc1

IC50 [1]: 0.072 µM
Compound: CC(C)Oc1cccc(-c2ccc3cnc(C(=O)NCC4CCOCC4)n3c2)c1

IC50 [1]: 0.003 µM
Compound: Nc1nccc(CNC(=O)c2ccc3c(c2)/C(=C/Cc2cccc(C(=O)O)c2)C(=O)N3)n1

IC50 [7]: 18 µM
Compound: COc1ccc(N2CCN(c3cc(NCCC(=O)O)c4c5c(onc35)-c3ccccc3C4=O)CC2)cc1

IC50 [1]: 0.004 µM
Compound: CC(C)Oc1cccc(-c2ccc3[nH]nc(C(=O)NCC4CCOCC4)c3c2)c1

EC50 (SH-SY5Y): 47 µM
Compound: O=c1cc(-c2ccc(O)c(O)c2)oc2cc(O)c([C@@H]3O[C@H](CO)[C@@H](O)[C@H](O)[C@H]3O)c(O)c12 [ISOORIENTIN]

More lines, now with the values behind:

Compound: Cc1ccc(C(=O)CCl)s1
IC50 [1]: > 100 µM

Compound: O=C(CCl)c1cc(Cl)c(Cl)s1
IC50 [1]: 3 µM

Compound: FC(F)(F)c1ccc(/C=N/Nc2nnc3n2N=C(c2ccc(Cl)cc2)CS3)cc1
IC50 [6]: 0.883 µM

Compound: COc1ccc(-c2cc(=O)c3c(OC)c([C@@H]4O[C@H](C(=O)N[C@@H](C)C(F)(F)F)[C@@H](O)[C@H](O)[C@H]4O)c(OC)cc3o2)cc1OC
IC50 [8]: 2 µM

Compound: COc1ccc(-c2cc(=O)c3c(OC)c([C@@H]4O[C@H](C(=O)N[C@H](C)C(F)(F)F)[C@@H](O)[C@H](O)[C@H]4O)c(OC)cc3o2)cc1OC
IC50 [8]: 0.6 µM
EC50 (SH-SY5Y): 9 µM

Compound: COc1ccc(-c2cc(=O)c3c(OC)c([C@@H]4O[C@H](C(=O)NC(C)C)[C@@H](O)[C@H](O)[C@H]4O)c(OC)cc3o2)cc1OC
IC50 [8]: 5 µM

Compound: COc1ccc(-c2cc(=O)c3c(OC)c([C@@H]4O[C@H](C(=O)NCc5ccccc5)[C@@H](O)[C@H](O)[C@H]4O)c(OC)cc3o2)cc1OC
IC50 [8]: 16 µM

Compound: C[S+]([O-])CCCCCCN=C=S (centres undefined)
IC50 [1]: 70 µM

Compound: CCCCCCCCCCCCCC(=O)NCC(=O)N[C@@H](CCCCN)C(=O)N[C@@H](CCC(=O)O)C(=O)N[C@@H](C)C(=O)C1CCC[C@H]1C(=O)N1CCC[C@H]1C(=O)N[C@@H](C)C(=O)N1CCC[C@H]1C(=O)N1CCC[C@H]1C(=O)N[C@@H](C)C(=O)N[C@@H](CO)C(=O)N1CCC[C@H]1C(=O)N1CCC[C@H]1C(N)=O (some centres undefined) (Myristoyl-GKE[X1]PAPPASPP-NH2)
IC50 [9]: 40 µM

Compound: COc1cc2c(c(OC)c1OC)-c1c(cc3c(c1OC)OCO3)C[C@@H](C)[C@@H](C)C2 [KADSURANIN]
IC50 [10]: 0.081 µM

Compound: COc1cc2c(c(OC)c1OC)-c1c(cc3c(c1OC)OCO3)C[C@H](C)[C@H](C)C2 [WUWEIZISU B]
IC50 [10]: 0.073 µM
